Columns and labels:
[1] = Isothermal titration calorimetry (ITC), I^−; assay type: binding; details: 25° C.
Description: Isothermal titration calorimetry (ITC) experiments were performed using a MicroCal VP-ITC. ITC experiments were conducted by adding ~1.5 mL of a solution containing c5a to the sample cell. Followed by titrating 10 μL aliquots of a solution containing the corresponding TBA·X salt (~10-14× concentration of c5a solution) from the syringe into the sample cell. Heats of dilution were obtained by titrating 10 μL aliquots of the TBA·X solution from the syringe into the sample cell in the absence of c5a. The heats of dilution were subtracted from the raw data. ITC data processing and curve fitting was done using the Origin program (MicroCal).
Two-step competition ITC experiments for determining the Ka of c5a and iodide. In CH3CN:CHCl3 (5:95, v/v), the binding affinity of c5a for I^− was too high to be determined with direct NMR or ITC titration. Instead, two-step competition ITC experiments with Cl^− as the competitor were performed.

[2] = Halide transport, lucigenin assay; assay type: biochemical; details: POPC LUVs, inside 100 mM NaNO3 + 1 mM lucigenin, outside 100 mM NaX, pH 7.0
Description: Determination of halide transport with the lucigenin assay.

[3] = tested on: Human bronchial epithelial (HBE) cells from cystic fibrosis (CF) patients; experiment: Airway surface liquid (ASL) thickness, confocal imaging; assay type: cell-based; details: CF HBE cultures, c5a 5 μM with 1% DMSO in PBS apically daily for five days
Description: Primary Cell Culture. Human bronchial epithelial (HBE) cells from cystic fibrosis (CF) patients (DF508 homozygous) were obtained from the UNC-CF Tissue Culture Core under the auspices of protocols approved by the UNC Institutional Review Board using previously reported methodologies. Cultures on 12-mm permeable supports (Transwell-Clear; Costar) were maintained in a well-humidified (>95%) incubator (5% CO2) at 37° C. during cellular differentiation (3-4 weeks after plating).
Confocal imaging studies. CF HBE cultures were treated with apically with c5a (5 μM in 1% DMSO) or vehicle control (1% DMSO in PBS) daily for 5 days prior to imaging. The height of the luminal airway surface layer (ASL) was visualized by adding a cell-impermeant dye (Texas Red-dextran 70 kDa; 0.1%) to the c5a and vehicle control on the evening prior to imaging. […] The thickness of the ASL layer in c5a and control cultures were measured by high-speed X-Z confocal scanning. […]
Human bronchial epithelial (HBE) cells isolated from CF patients were cultured at the time of lung transplant as a model system for diseased airways. […] The thickness of the ASL layer on the surface of the HBE cell layer can be conveniently measured by determining the thickness of the fluorescently-labeled fluid layer on the airway surface using X-Z confocal scanning microscopy (FIG. 117b). […]

[4] = 1H NMR titration, binding of iodide; details: DMSO-d6:CDCl3 (15:85, v/v), 25° C.
Description: ^1H NMR Titration methods. Titrations of 4c and 6c with anions as their tetra-n-butyl ammonium (TBA) salts were carried out by ^1H NMR (400 MHz on Bruker-400) at room temperature (298 K). 0.5 mL of receptor 4c (5.0 mM) or 6c (2.0 mM) were prepared in the rubber-cap NMR tubes. Aliquots of concentrated TBACl or TBAI solution (50 mM for the titration of 4c and 20 mM for the titration of 6c) containing the same amount of receptors were added into the receptor solution using 20 microliter pipette. An initial ^1H NMR spectrum was collected and additional spectra were obtained after each injection of TBACl or TBAI solution. All titration ^1H NMR spectra were stacked together and the chemical shifts of amide protons were then fitted to the proposed 1:1 binding model using BindFit v0.5 (http://app.supramolecular.org/bindfit/).
Anion binding with four amides, i.e., L1mer-L4mer, was studied in the mixed solvents of CD3CN/CDCl3 (1/9, v/v) by titrating an amide host with 0 to 5 equivalents of tetrabutylammonium (n-Bu4N^+) salt of the corresponding anion. The binding of chloride, bromide, iodide, and nitrate was examined with the four amides in CDCl3 containing 10% CD3CN. The titration data were collected by monitoring the changes in chemical shifts of the backbone amide protons and the inner aromatic protons with varying ratios of the anion guests. […]

CCCCCCCCOCC(C)(C)C(=O)Nc1ccc2cc1C(=O)Nc1ccc(NC(=O)C(C)(C)COCCCCCCCC)c(c1)C(=O)Nc1ccc(NC(=O)C(C)(C)COCCCCCCCC)c(c1)C(=O)Nc1ccc(NC(=O)C(C)(C)COCCCCCCCC)c(c1)C(=O)Nc1ccc(NC(=O)C(C)(C)COCCCCCCCC)c(c1)C(=O)N2 [c5a]
Association constant Ka, 1:1 complex with I^− ([1]; CH3CN:CHCl3 (5:95, v/v), two-step competition ITC with Cl^− as the competitor): (6.67 ± 0.81) × 10^7 ^f M^−1 | Association constant Ka, 1:1 complex with I^− ([1]; CH3CN:CHCl3 (5:95, v/v), ITC): (7.78 ± 4.26) × 10^7 M^−1 | Association constant Ka, 1:1 complex with I^− ([1]; DMSO-d6:CDCl3 (15:85, v/v) column, ITC measurements (footnote d)): (1.18 ± 0.03) × 10^4 ^d M^−1 | Association constant Ka, 1:1 complex with I^− ([1]; DMSO:CHCl3 (5:95, v/v), ITC): (1.83 ± 0.08) × 10^5 M^−1 | sequence of halide transport efficiency (reduction of lucigenin fluorescence) [2]: Cl^−>Br^−>I^− | increase of ASL thickness vs control CF [3]: more than 50% | ASL thickness ([3]; X-Z confocal): 7.8±1.7 μm | Association constant Ka, 1:1 complex with I^− ([4]; single NMR titration (protons a and b)): (2.73 ± 0.17) × 10^4 M^−1 | Association constant Ka, 1:1 complex with I^− ([4]; triplicate NMR titrations (footnote c)): (3.77 ± 0.25) × 10^4 ^c M^−1

— patent publication US20260272879A1, “ANION-BINDING AROMATIC OLIGOAMIDE MACROCYCLES AND METHODS OF MAKING AND USING SAME” (The Research Foundation for The State University of New York, priority 2023, published 2026)
